Source: patent publication US20140134690A1, “MICROBES AND METHODS FOR PRODUCING 1-PROPANOL” (University of Georgia Research Foundation, Inc., priority 2012, published 2014)

How the values were obtained:
Experiment in all cases: Methylglyoxal synthase assay
[1] = biological target: E. coli MG1655 methylglyoxal synthase (mgsA), wild type (Escherichia coli, UniProt P0A731); assay type: biochemical; settings: substrate dihydroxyacetone phosphate 0.15-1.5 mM; crude extract; pH 7.0; 30° C.
From the text: (§1) 1,2-Propanediol pathway branches from glycolysis and competes for the intermediate dihydroxyacetone phosphate, with the glycolytic pathway. […] We amplified the mgsA genes from the microorganisms: C. acetobutylicum (ATCC#824), B. subtilis 168, C. difficile R20291, E. coli MG1655, T. thermophilus HB27, K. pneumoniae MGH78578, P. fluorescens Pf-5, and R. eutropha H16 respectively. These genes were cloned and expressed in wild type E. coli BW25113 using eight plasmids pRJ1-pRJ8. Each gene was under the control of the IPTG-inducible pLlacO1 promoter. Using dihydroxyacetone-phosphate as the substrate, we successfully detected the functional expression of all mgsA genes in vitro, where the specific activities varied from 0.0052 U/mg to 0.1242 U/mg (Table 1). […] Without the over-expression of mgsA gene, we also detected the native expression of E. coli mgsA, which gave a specific activity of only 0.0008 U/mg, much lower than that of any over-expression.
(§2) Using the primers listed in Table 5, the mgsA genes were PCR amplified from the genomic DNA of C. acetobutylicum (ATCC824), B. subtilis 168, Clostridium difficile R20291, E. coli MG1655, Thermus thermophilus HB27, K. pneumoniae MGH78578, Pseudomonas fluorescens Pf-5, and Ralstonia eutropha H16 respectively. […]
(§3) The assay was carried out using a two-step procedure. […] The samples were diluted 10 times before measuring the absorbance at 550 nm.

[2] = biological target: T1, Pseudomonas fluorescens Pf-5 methylglyoxal synthase (mgsA), wild type (Pseudomonas protegens, UniProt Q4K7S5); assay type: biochemical, P. fluorescens; settings: substrate dihydroxyacetone phosphate 0.15-1.5 mM; crude extract; pH 7.0; 30° C.
T1 sequence (Q4K7S5 1-154): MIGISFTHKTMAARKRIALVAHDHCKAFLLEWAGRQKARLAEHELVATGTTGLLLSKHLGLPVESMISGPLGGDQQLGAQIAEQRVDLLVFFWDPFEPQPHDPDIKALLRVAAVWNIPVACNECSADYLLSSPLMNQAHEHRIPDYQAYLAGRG
From the text: as §1, §2, §3

[3] = biological target: Klebsiella pneumoniae MGH78578 methylglyoxal synthase (mgsA), wild type (Klebsiella pneumoniae, UniProt A6T757); assay type: biochemical, K. pneumoniae; settings: substrate dihydroxyacetone phosphate 0.15-1.5 mM; crude extract; pH 7.0; 30° C.
From the text: as §1, §2, §3

[4] = biological target: Clostridium difficile R20291 methylglyoxal synthase (mgsA), wild type (Clostridioides difficile, UniProt A0A9R0BJ64); assay type: biochemical, C. difficile; settings: substrate dihydroxyacetone phosphate 0.15-1.5 mM; crude extract; pH 7.0; 30° C.
From the text: as §1, §2, §3

[5] = biological target: T2, Ralstonia eutropha H16 methylglyoxal synthase (mgsA), wild type (Cupriavidus necator, UniProt Q0KD43); assay type: biochemical, R. eutropha; settings: substrate dihydroxyacetone phosphate 0.15-1.5 mM; crude extract; pH 7.0; 30° C.
T2 sequence (Q0KD43 1-132): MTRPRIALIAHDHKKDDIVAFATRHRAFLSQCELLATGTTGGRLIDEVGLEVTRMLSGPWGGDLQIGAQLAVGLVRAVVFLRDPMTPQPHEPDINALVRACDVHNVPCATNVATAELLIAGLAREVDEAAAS
From the text: as §1, §2, §3

[6] = biological target: T3, Clostridium acetobutylicum (ATCC 824) methylglyoxal synthase (mgsA), wild type (Clostridium acetobutylicum, UniProt Q97IN6); assay type: biochemical, C. acetobutylicum; settings: substrate dihydroxyacetone phosphate 0.15-1.5 mM; crude extract; pH 7.0; 30° C.
T3 sequence (Q97IN6 1-145): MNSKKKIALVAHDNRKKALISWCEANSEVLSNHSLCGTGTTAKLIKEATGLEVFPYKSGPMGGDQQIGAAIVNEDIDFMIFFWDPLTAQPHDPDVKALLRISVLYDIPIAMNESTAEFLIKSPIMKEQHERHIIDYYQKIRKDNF
From the text: as §1, §2, §3

[7] = biological target: T4, Thermus thermophilus HB27 methylglyoxal synthase (mgsA), wild type (Thermus thermophilus, UniProt Q72HP3); assay type: biochemical, T. thermophilus; settings: substrate dihydroxyacetone phosphate 0.15-1.5 mM; crude extract; pH 7.0; 30° C.
T4 sequence (Q72HP3 1-126): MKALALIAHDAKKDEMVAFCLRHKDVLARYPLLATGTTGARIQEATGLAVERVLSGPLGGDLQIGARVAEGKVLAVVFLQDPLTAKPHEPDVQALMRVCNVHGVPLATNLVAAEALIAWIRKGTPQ
From the text: as §1, §2, §3

[8] = biological target: T5, Bacillus subtilis 168 methylglyoxal synthase (mgsA), wild type (Bacillus subtilis, UniProt P42980); assay type: biochemical, B. subtilis
T5 sequence (P42980 1-137): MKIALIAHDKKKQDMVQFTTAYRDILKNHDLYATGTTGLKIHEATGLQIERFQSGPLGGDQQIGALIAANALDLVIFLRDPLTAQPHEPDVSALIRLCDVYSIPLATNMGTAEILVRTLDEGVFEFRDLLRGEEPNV
From the text: as §1, §2, §3

Sequence of Clostridium difficile R20291 methylglyoxal synthase (mgsA), wild type (A0A9R0BJ64 entry or part of it): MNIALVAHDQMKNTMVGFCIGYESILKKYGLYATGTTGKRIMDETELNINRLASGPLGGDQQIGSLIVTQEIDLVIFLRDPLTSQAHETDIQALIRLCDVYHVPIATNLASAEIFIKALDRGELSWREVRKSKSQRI
Sequence of Klebsiella pneumoniae MGH78578 methylglyoxal synthase (mgsA), wild type (A6T757 6-157): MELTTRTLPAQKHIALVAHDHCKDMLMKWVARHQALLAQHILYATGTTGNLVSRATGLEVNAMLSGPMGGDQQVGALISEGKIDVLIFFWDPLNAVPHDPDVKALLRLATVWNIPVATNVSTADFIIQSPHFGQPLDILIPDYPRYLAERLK
Sequence of E. coli MG1655 methylglyoxal synthase (mgsA), wild type (P0A731 whole entry): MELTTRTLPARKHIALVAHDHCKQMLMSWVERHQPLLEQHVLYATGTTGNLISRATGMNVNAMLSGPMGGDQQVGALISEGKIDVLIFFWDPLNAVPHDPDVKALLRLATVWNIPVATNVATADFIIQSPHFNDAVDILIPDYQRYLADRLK

## O=C(CO)COP(=O)(O)O [dihydroxyacetone phosphate]
[1]
  Specific Activity/Km: 0.0876 U/mg/mM
[2]
  Specific Activity/Km: 0.0085 U/mg/mM
[3]
  Specific Activity/Km: 0.0058 U/mg/mM
[4]
  Specific Activity/Km: 0.0415 U/mg/mM
[5]
  Specific Activity/Km: 0.0074 U/mg/mM
[6]
  Specific Activity/Km: 0.0697 U/mg/mM
[7]
  Specific Activity/Km: 0.0076 U/mg/mM
[8]; substrate dihydroxyacetone phosphate 0.15-1.5 mM, crude extract, pH 7.0, 30° C.
  Specific Activity/Km: 0.1186 U/mg/mM
[8]; substrate dihydroxyacetone-phosphate
  ratio of specific activity/Km: 0.1186
